{"source": "patent US9475028B2", "about": "(priority 2006, dated 2016)", "tested_on": "A549 (Lung Mesothelial Carcinoma) cells", "type": "cell-based", "note": "Entries after “also recorded” stand apart in the source; their conditions may differ.", "data": [{"substance": "C60(OH)n (n˜1-48) [PHF]", "values": [{"measurement": "observed damage to cells", "value": "restricted to the top layer of cells; also recorded: damage of multiple layers of cells"}]}]}
